This is an account of results in patent US20260297085A1, “1 H-PYRROLO[2,3-B]PYRIDIN-4-YL]-2-OXOPYRROLIDINE-3-CARBONITRILE DERIVATIVES AS TYROSINE KINASE 2 (TYK2) INHIBITORS FOR THE TREATMENT OF INFLAMMATORY DISEASES” (BIOGEN MA INC., priority 2023, published 2026).

Counter-ions that a name gives are not always drawn. Bounds are passed on as bounds.

Experiment [1] deals with T1, human TYK2 kinase domain (JH1) (Homo sapiens, UniProt P29597).
T1 construct: recombinantly generated catalytic kinase (also known as JH1) domain of human JAK1, JAK2, JAK3 and TYK2
T1 sequence (P29597 897-1176 limits assumed): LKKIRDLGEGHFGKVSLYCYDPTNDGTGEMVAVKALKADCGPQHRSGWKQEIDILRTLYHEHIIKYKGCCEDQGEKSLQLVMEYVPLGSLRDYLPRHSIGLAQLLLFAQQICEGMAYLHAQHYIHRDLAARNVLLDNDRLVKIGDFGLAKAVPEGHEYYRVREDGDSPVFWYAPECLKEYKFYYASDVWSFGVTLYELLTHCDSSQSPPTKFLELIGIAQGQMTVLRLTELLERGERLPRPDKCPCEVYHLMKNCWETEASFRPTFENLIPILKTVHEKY
In words: JH1 biochemical assay for TYK2 (ADP-Glo kinase assay, recombinant JH1 catalytic domain, JAK3-974 peptide, 10 μM ATP). The following applies: TYK2 JH1, ADP-Glo. A digest of the protocol: (§1)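 ADP-Glo luminescence with 50 μM peptide and 100 min reactions: JAK1 4 nM with JAK3-342 peptide; JAK2, JAK3 and TYK2 at 0.2, 0.3 and 2 nM with JAK3-974 peptide. Compounds tested from 10 or 1 μM top, 11 points, 3-fold. IC50 from a 4-parameter logistic fit of normalized activity.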
Background: In ADP-Glo the light output rises with the ADP produced.

Experiment [2] addresses T2, human JAK1 kinase domain (JH1) (Homo sapiens, UniProt P23458).
T2 construct: recombinantly generated catalytic kinase (also known as JH1) domain of human JAK1, JAK2, JAK3 and TYK2
In words: JH1 biochemical assay for JAK1 (ADP-Glo kinase assay, recombinant JH1 catalytic domain, JAK3-342 peptide, 35 μM ATP). The following applies: JAK1 JH1, ADP-Glo. A digest of the protocol: as §1

Experiment [3] concerns the target T3, human JAK2 kinase domain (JH1) (Homo sapiens, UniProt O60674).
T3 construct: recombinantly generated catalytic kinase (also known as JH1) domain of human JAK1, JAK2, JAK3 and TYK2
In words: JH1 biochemical assay for JAK2 (ADP-Glo kinase assay, recombinant JH1 catalytic domain, JAK3-974 peptide, 15 μM ATP). The following applies: JAK2 JH1, ADP-Glo. In outline: as §1

Experiment [4] deals with T4, human JAK3 kinase domain (JH1) (Homo sapiens, UniProt P52333).
T4 construct: recombinantly generated catalytic kinase (also known as JH1) domain of human JAK1, JAK2, JAK3 and TYK2
In words: JH1 biochemical assay for JAK3 (ADP-Glo kinase assay, recombinant JH1 catalytic domain, JAK3-974 peptide, 4 μM ATP). The conditions noted are these: JAK3 JH1, ADP-Glo. A digest of the protocol:
as §1

For experiment [5], the target named is Tyk2 kinase activity on STAT4 in NK92 cells (Homo sapiens, UniProt P29597). In words: pSTAT4 cell assay (MSD; NK92 cells, 30 ng/mL IL2 stimulation). The following applies: 30 ng/mL IL2, 15 minutes. The format is cell-based. In outline:
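Read-out: phospho-STAT in NK92 lysates, MSD format, anti-STAT4 antibodies. Cells were serum-starved, given compound for 1 hr (10 μM top, four-fold, 10 points) and IL2-stimulated (30 ng/mL, 15 min). Normalized percent activity vs log concentration, 4-parameter logistic fit gave IC50.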

For experiment [6], the target named is JAK2 kinase activity on STAT5 in TF1 cells (Homo sapiens, UniProt O60674). In words: pSTAT5 cell assay (MSD; TF1 cells, 30 ng/mL IL-3 stimulation). The format is cell-based. The conditions noted are these: 30 ng/mL IL-3, 15 minutes. A digest of the protocol:
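IC50 from a 4-parameter logistic fit of normalized pSTAT5 signal, measured by MSD in lysates of TF1 cells. Cells were serum-starved, exposed to compound for 1 h (top concentration 10 μM, four-fold, 10 points), then given IL-3 at 30 ng/mL for 15 min.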

Experiment [7] deals with JAK1 kinase activity on STAT3 in TF1 cells (Homo sapiens, UniProt P23458). In words: pSTAT3 cell assay (MSD; TF1 cells, 30 ng/mL IL-6 stimulation). The format is cell-based. The following applies: 30 ng/mL IL-6, 15 minutes. In outline:
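IC50 values reflect 4-parameter logistic fits of normalized pSTAT3 signal, measured by MSD in lysed TF1 cells. Cells were serum-starved and treated with compound for 1 h (top concentration 10 μM) before a 15 min IL-6 challenge.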

JAK1 kinase activity on STAT3 in TF1 cells, sequence (P23458 whole entry): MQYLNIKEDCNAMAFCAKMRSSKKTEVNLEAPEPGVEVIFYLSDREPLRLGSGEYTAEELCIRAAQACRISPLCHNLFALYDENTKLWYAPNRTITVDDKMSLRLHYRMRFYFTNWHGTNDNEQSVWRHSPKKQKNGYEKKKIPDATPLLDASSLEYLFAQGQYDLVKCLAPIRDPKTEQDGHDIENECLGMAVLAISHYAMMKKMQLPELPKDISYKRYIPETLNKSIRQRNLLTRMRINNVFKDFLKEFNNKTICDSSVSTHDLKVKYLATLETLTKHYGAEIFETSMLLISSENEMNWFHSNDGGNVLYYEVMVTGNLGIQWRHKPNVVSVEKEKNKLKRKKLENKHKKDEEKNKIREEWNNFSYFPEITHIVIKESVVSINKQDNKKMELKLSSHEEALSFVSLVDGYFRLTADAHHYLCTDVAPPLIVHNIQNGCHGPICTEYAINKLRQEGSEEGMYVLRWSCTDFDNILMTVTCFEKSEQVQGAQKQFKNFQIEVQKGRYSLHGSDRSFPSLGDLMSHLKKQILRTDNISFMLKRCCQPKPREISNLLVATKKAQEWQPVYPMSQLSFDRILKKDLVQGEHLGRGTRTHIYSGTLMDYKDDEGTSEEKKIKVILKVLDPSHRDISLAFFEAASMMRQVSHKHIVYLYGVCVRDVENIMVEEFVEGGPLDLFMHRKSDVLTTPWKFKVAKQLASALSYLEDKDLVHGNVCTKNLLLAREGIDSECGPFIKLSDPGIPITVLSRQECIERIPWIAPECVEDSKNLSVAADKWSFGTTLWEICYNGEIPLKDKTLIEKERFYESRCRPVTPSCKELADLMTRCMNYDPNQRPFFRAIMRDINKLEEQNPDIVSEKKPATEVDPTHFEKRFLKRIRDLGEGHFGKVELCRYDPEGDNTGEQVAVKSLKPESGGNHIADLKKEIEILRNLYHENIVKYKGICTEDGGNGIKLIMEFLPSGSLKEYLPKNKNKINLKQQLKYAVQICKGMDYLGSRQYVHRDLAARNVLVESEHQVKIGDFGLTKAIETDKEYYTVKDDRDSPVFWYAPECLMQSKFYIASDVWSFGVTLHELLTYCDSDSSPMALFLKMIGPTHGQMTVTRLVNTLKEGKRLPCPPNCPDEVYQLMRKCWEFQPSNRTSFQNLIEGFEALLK
T4 sequence (P52333 822-1111 limits assumed): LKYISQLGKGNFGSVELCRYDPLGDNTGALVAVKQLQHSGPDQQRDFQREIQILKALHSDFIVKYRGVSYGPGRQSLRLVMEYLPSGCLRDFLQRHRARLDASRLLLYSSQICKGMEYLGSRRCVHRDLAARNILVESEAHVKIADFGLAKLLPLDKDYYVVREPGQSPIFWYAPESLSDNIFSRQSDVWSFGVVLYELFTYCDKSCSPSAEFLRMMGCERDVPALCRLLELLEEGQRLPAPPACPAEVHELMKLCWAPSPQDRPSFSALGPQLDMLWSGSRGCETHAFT
T3 sequence (O60674 849-1124 limits assumed): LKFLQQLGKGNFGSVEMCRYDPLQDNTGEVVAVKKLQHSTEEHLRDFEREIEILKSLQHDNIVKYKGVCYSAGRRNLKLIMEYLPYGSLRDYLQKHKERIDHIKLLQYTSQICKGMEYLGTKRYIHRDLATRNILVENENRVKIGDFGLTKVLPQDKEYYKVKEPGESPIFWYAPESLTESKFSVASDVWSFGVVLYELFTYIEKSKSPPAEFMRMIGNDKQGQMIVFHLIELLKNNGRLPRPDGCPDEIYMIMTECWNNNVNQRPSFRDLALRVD
Tyk2 kinase activity on STAT4 in NK92 cells, sequence (P29597 whole entry): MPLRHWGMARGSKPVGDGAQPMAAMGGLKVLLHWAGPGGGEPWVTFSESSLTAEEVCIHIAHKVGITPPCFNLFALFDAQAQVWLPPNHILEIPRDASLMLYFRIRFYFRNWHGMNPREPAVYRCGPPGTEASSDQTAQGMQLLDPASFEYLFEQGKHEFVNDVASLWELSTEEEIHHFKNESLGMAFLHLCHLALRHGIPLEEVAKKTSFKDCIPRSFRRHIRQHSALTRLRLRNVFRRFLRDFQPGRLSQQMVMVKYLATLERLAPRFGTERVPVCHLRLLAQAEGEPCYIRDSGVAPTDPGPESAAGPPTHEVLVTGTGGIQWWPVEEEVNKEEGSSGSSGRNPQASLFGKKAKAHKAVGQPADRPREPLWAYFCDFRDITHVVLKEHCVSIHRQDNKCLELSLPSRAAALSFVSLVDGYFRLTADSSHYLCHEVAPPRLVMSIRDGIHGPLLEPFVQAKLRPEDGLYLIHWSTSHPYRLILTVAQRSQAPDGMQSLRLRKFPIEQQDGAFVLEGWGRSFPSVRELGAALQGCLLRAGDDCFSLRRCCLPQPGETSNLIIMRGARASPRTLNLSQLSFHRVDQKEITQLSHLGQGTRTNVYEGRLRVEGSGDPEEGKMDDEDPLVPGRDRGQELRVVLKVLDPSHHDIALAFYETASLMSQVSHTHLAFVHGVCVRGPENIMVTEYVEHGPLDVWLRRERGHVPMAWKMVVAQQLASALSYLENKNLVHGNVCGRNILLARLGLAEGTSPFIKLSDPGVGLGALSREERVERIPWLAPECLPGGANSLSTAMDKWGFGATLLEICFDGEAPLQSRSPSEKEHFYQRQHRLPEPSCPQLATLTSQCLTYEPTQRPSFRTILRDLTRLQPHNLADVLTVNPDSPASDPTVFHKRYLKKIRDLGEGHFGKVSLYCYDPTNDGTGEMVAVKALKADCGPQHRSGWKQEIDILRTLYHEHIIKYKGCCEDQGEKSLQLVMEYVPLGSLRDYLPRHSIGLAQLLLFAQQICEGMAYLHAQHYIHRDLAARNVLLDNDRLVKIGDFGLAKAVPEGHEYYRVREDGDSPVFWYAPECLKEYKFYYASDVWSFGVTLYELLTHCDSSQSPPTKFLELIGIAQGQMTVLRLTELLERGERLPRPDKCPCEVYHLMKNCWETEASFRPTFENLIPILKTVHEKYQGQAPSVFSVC
T2 sequence (P23458 875-1153 limits assumed): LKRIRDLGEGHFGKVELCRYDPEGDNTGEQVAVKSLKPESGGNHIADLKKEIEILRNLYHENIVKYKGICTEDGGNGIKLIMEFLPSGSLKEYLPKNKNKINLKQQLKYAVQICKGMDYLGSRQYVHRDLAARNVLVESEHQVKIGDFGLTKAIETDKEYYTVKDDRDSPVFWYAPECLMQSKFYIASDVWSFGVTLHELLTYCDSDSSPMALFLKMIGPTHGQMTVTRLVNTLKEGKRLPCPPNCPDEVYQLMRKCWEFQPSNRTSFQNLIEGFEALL
JAK2 kinase activity on STAT5 in TF1 cells, sequence (O60674 whole entry): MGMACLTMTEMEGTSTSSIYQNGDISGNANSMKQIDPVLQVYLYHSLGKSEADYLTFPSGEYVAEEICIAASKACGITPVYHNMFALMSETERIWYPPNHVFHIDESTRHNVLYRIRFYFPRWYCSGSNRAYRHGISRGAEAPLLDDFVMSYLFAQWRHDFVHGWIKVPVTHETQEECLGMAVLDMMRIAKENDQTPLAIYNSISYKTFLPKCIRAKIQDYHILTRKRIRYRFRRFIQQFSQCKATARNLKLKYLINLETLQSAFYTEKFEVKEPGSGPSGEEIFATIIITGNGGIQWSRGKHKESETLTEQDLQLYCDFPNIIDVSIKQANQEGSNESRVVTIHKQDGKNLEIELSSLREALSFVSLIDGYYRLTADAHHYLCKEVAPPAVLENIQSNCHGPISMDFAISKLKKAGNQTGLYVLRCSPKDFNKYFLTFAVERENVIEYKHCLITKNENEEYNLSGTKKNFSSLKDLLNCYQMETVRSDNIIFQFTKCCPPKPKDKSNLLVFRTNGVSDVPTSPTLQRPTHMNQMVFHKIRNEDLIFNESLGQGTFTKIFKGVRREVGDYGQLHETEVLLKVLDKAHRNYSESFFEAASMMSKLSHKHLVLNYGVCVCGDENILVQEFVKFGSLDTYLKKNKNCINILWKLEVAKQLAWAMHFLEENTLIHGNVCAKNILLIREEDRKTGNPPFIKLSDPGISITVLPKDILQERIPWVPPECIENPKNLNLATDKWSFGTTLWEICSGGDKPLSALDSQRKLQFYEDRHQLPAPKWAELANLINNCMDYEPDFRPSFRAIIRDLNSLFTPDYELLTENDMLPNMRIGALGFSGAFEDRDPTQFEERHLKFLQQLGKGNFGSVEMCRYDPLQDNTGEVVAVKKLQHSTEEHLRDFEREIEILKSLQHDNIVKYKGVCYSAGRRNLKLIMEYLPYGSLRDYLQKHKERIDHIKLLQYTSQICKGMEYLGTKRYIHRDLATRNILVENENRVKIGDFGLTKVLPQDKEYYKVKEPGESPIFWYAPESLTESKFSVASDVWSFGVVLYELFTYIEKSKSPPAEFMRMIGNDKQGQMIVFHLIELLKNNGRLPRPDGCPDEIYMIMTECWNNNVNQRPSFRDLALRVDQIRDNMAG

What is called IC50 is the concentration at which inhibition is half-maximal. Turning to `Cc1ccc(-c2cn3nccc3c(N3C[C@@H](C)[C@@](C#N)(C4CC4)C3=O)n2)cn1` [Example 233, (3R,4S)-3-cyclopropyl-4-methyl-1-(6-(6-methylpyridin-3-yl)pyrazolo[1,5-a]pyrazin-4-yl)-2-oxopyrrolidine-3-carbonitrile trifluoroacetate], the half-inhibitory concentration (IC50) was under 5 nM in experiment [1]; under 100 nM in experiment [2]; 100 to 1000 nM in experiment [3]; under 100 nM in experiment [4]; over 100 nM in experiment [5]; 1000 to 5000 nM in experiment [6]. In experiment [7], the half-inhibitory concentration (IC50) fell in the range of 1000 to 5000 nM.
For the molecule `C[C@@H]1CN(c2nc(-c3ccnc(C(F)(F)F)c3)cn3nccc23)C(=O)[C@]1(C#N)C1CC1` [Example 234, (3R,4S)-3-cyclopropyl-4-methyl-2-oxo-1-(6-(2-(trifluoromethyl)pyridin-4-yl)pyrazolo[1,5-a]pyrazin-4-yl)pyrrolidine-3-carbonitrile trifluoroacetate], the half-inhibitory concentration (IC50) in experiment [1] is 5 to 20 nM; in experiment [2] it was 100 to 1000 nM; in experiment [3], 100 to 1000 nM; in experiment [4], 100 to 1000 nM; in experiment [5] it was over 100 nM; in experiment [6], over 10000 nM. This molecule yielded an IC50 in experiment [7] of over 10000 nM.
For the molecule `C[C@@H]1CN(c2nc(-c3cnc4c(c3)OCC(=O)N4C)cn3nccc23)C(=O)[C@]1(C#N)C1CC1` [Example 235, (3R,4S)-3-cyclopropyl-4-methyl-1-(6-(4-methyl-3-oxo-3,4-dihydro-2H-pyrido[3,2-b][1,4]oxazin-7-yl)pyrazolo[1,5-a]pyrazin-4-yl)-2-oxopyrrolidine-3-carbonitrile trifluoroacetate], the half-inhibitory concentration (IC50) in experiment [1] was under 5 nM; in experiment [2], under 100 nM; in experiment [3], 100 to 1000 nM; in experiment [4], 100 to 1000 nM; in experiment [5] it was over 100 nM; in experiment [6] it was over 10000 nM. Further, in experiment [7], the IC50 is over 10000 nM.
For `Cc1cncc(-c2cn3nccc3c(N3C[C@@H](C)[C@@](C#N)(C4CC4)C3=O)n2)c1` [Example 236, (3R,4S)-3-cyclopropyl-4-methyl-1-(6-(5-methylpyridin-3-yl)pyrazolo[1,5-a]pyrazin-4-yl)-2-oxopyrrolidine-3-carbonitrile], the concentration for half-maximal inhibition (IC50) in experiment [1] was 5 to 20 nM; in experiment [2], 100 to 1000 nM; in experiment [3], 100 to 1000 nM; in experiment [4], 100 to 1000 nM; in experiment [5], over 100 nM; in experiment [6] it was 5000 to 10000 nM. The same molecule returned a concentration for half-maximal inhibition (IC50) in experiment [7] of 1000 to 5000 nM.
As to `C[C@@H]1CN(c2nc(-c3ccnc(F)c3)cn3nccc23)C(=O)[C@]1(C#N)C1CC1` [Example 237, (3R,4S)-3-cyclopropyl-1-(6-(2-fluoropyridin-4-yl)pyrazolo[1,5-a]pyrazin-4-yl)-4-methyl-2-oxopyrrolidine-3-carbonitrile trifluoroacetate], the IC50 in experiment [1] is 5 to 20 nM; in experiment [2], under 100 nM; in experiment [3] it was 100 to 1000 nM; in experiment [4], 100 to 1000 nM; in experiment [5], 50 to 100 nM; in experiment [6], 5000 to 10000 nM. Besides, the half-maximal inhibitory concentration (IC50) in experiment [7] lay in the range of 100 to 1000 nM.
Regarding `Cc1ncc(-c2cn3nccc3c(N3C[C@@H](C)[C@@](C#N)(C4CC4)C3=O)n2)s1` [Example 239, (3R,4S)-3-cyclopropyl-4-methyl-1-(6-(2-methylthiazol-5-yl)pyrazolo[1,5-a]pyrazin-4-yl)-2-oxopyrrolidine-3-carbonitrile], the IC50 in experiment [1] was under 5 nM; in experiment [2] it was under 100 nM; in experiment [3], 100 to 1000 nM; in experiment [4], under 100 nM; in experiment [5], 50 to 100 nM; in experiment [6], 1000 to 5000 nM. The molecule also yielded a concentration for half-maximal inhibition (IC50) in experiment [7] of 100 to 1000 nM.
As to `COc1cncc(-c2cn3nccc3c(N3C[C@@H](C)[C@@](C#N)(C4CC4)C3=O)n2)c1` [Example 244, (3R,4S)-3-cyclopropyl-1-(6-(5-methoxypyridin-3-yl)pyrazolo[1,5-a]pyrazin-4-yl)-4-methyl-2-oxopyrrolidine-3-carbonitrile trifluoroacetate], the IC50 is 5 to 20 nM in experiment [1]; 100 to 1000 nM in experiment [2]; 100 to 1000 nM in experiment [3]; 100 to 1000 nM in experiment [4]; over 100 nM in experiment [5]; over 10000 nM in experiment [6]. The concentration for half-maximal inhibition (IC50) in experiment [7] was in the range of 5000 to 10000 nM.
